Where two headings read alike, the source gives them in different places.
How the values were obtained:
mice [1] = assay: 6 Hz (minimal clonic seizure) model, mice i.p.; format: in vivo; conditions: for 6 Hz (32 mA), fraction of animals: mice i.p.; for activity in the 6 Hz (minimal clonic seizure) model: mice
mice [2] = assay: Subcutaneous Metrazol Seizure threshold (s.c. MET) test, mice i.p.; format: in vivo; conditions: for activity in the s.c. MET test: mice, at 300 mg/kg; for s.c. MET, fraction of animals: mice i.p.
mice [3] = assay: Maximal Electroshock Seizure (MES) test, mice i.p.; format: in vivo; conditions: for MES, fraction of animals: mice i.p.; for activity in the MES test: mice
[4] = tested on: rat dopaminergic N27 cells; assay: N27 protection assay against oxidative stress (H2O2 or MPP+; MTT and LDH); format: cell-based; conditions: drug 24 hours before 200 μM H2O2 or 640 μM MPP+
Text: FIGS. 20A-25D data are shown illustrating neuroprotective and neuroregenerative effects observed in rat dopaminergic N27 cells. Rat dopaminergic N27 cells are commonly used in in vitro and in vivo model systems for studying Parkinson's disease. Parkinson's disease is a neurodegenerative disorder of the central nervous system that affects more than 6 million people worldwide. The motor symptoms of Parkinson's disease result from the death of dopamine generating cells in the substantia nigra, a region of the midbrain.
The N27 rat dopaminergic neuron cell line was harvested from E12 rat mesencephalic tissue and was transfected with SV40 to immortalize the cell line. The N27 cell line, when injected into the striata of 6-hydroxydopamine-lesioned rats (an animal model of PD) caused a time-dependent improvement in neurological deficits. This immortalized cell line has been carefully characterized in studies of dopamine biosynthesis, neurotoxicity and used as a dopaminergic neuron model studies.
The N27 in vitro Parkinson's disease model included a test of cell viability and cell toxicity in response to exposure to oxidative stress (e.g., either 200 μM H2O2 or 640 μM MPP+).
Cell viability was tested using the MTT assay. The MTT assay is a colorimetric analysis based on the activities of mitochondrial NAD(P)H-dependent cellular oxidoreductase enzymes. These enzymes are capable of reducing the tetrazolium dye, MTT [3-(4,5-dimethylthiazol-2-yl)-2,5-diphenyltetrazolium] bromide, to an insoluble formazan (purple). […] More viable cells equal more accumulation of the insoluble formazan dye.
Cell toxicity was tested using the […] (LDH) assay. Cells that are stressed secrete LDH. In general, the more cells are stressed, the LDH they secrete into their media. The LDH assay is a reliable colorimetric assay to measure quantitatively the […] (LDH) that is released into the cell culture media from damaged cells as a biomarker for cytotoxicity and cytolysis.
FIGS. 20A-25D present data from two types of assays: protection and recovery assays. In the protection assays, the drug candidate was applied to the cells at various concentrations for 24 hours, followed by the exposure to oxidative stress (either 200 μM H2O2 or 640 μM MPP+) for measuring neuroprotective effect. H2O2 provides a broad measure of oxidative stress, while MPP+ gives a more specific oxidative stress to dopaminergic neurons.
The protection assay results are shown in panels A-C of FIGS. 20-25 In the recovery assays, the cells were first damaged by exposure to H2O2 and then various concentrations of the drug were applied to the cells. The results for the recovery assays are shown the D panels of FIGS. 20-25.

SMN2 promoter = SMN2 promoter β-lactamase reporter assay in NSC34 motor neuron-like cells; format: cell-based; conditions: for Promoter (SMN2 promoter test, summary YES/NO): Table 13 summary; for SMN2 promoter activity: treatment for 19 hours at a concentration of 1 μM
Procedure: FIG. 30 illustrates a screen for SMN2 expression of a number of compounds described herein.
SMN2 promoter activity was measured using NSC34 motor neuron-like cells stably transfected with a β-lactamase (BLA) reporter gene under the control of a 3.4-kilobase fragment of the SMN2 promoter. D156844 was used as a positive control for this assay.

rats = assay: Pilocarpine-induced Status Epilepticus in Rats (prevention; intervention @ 30 min); conditions: for Prevention, Protection: rats, pilocarpine-induced status epilepticus, dose 600 mg/kg
Procedure: The animal testing was performed using the protocols developed in the Anticonvulsant Screening Program (ASP) at the National Institute of Neurological Disorders and Stroke (NINDS), National Institutes of Health (NIH).

[5] = Rattus norvegicus, 0.5 h, read-out: Intervention @ 30 min, Protection
[6] = Rattus norvegicus, read-out: Prevention, Protection

CC[C@H](NC(=O)[C@@H]1C[C@H]1c1ccccc1)C(N)=O (mixture of isomers) [Compound Q-1, trans-2-Phenylcyclopropane-carboxylic acid-((S)-1-carbamoyl-propyl)amide]
6 Hz (32 mA), fraction of animals (mice [1]; 50 mg/kg @ 0.25 hr): 1/4 @0.25 | 6 Hz (32 mA), fraction of animals (mice [1]; 100 mg/kg @ 0.25 hr): 4/4 | 6 Hz (32 mA), fraction of animals (mice [1]; 100 mg/kg @ 0.5 hr): 3/4 | 6 Hz (32 mA), fraction of animals (mice [1]; 100 mg/kg @ 1.0 hr): 4/4 | 6 Hz (32 mA), fraction of animals (mice [1]; 100 mg/kg @ 2.0 hr): 1/4 | activity in the 6 Hz (minimal clonic seizure) model (mice [1]; at 100 mg/kg): activity | activity in the s.c. MET test (mice [2]): activity | MES, fraction of animals (mice [3]; 100 mg/kg @ 0.5 hr): 2/3 | MES, fraction of animals (mice [3]; 100 mg/kg @ 4.0 hr): 1/3 | activity in the MES test (mice [3]; at 300 mg/kg): activity

Cc1nc(C)c(C(C)CC(N)=O)cc1C(C)CC(N)=O (mixture of isomers) [DA]
neuroprotective effect against H2O2 and MPP+ oxidative stresses (MTT and LDH assays) [4]: statistically significant, dose-dependent neuroprotection | Promoter (SMN2 promoter test, summary YES/NO) (SMN2 promoter): YES | SMN2 promoter activity (SMN2 promoter): increased SMN2 promoter activity

CC(CC(N)=O)c1ccc(S(C)(=O)=O)cc1 (racemic) [AV]
neuroprotective effect against H2O2 and MPP+ oxidative stresses (MTT and LDH assays) [4]: statistically significant, dose-dependent neuroprotection | Prevention, Protection (rats): 25%

CCOc1ccc(C(C)CC(N)=O)cc1 (racemic) [CA]
activity in the 6 Hz (minimal clonic seizure) model (mice [1]; at 100 mg/kg): activity | Promoter (SMN2 promoter test, summary YES/NO) (SMN2 promoter): YES | SMN2 promoter activity (SMN2 promoter): increased SMN2 promoter activity | Prevention, Protection (rats): 100%

Cc1cc(C(CC(N)=O)C2CC2)ccc1F (stereo not drawn) [AO, 3-Cyclopropyl-3-(4-fluoro-3-methylphenyl)-propionamide]
neuroprotective effect against H2O2 and MPP+ oxidative stresses (MTT and LDH assays) [4]: statistically significant, dose-dependent neuroprotection | activity in the s.c. MET test (mice [2]): activity | MES, fraction of animals (mice [3]; 100 mg/kg @ 0.5 hr): 1/3 @ | activity in the MES test (mice [3]; at 100 mg/kg): activity | responders at 97 mg/kg (rats; [5]): 50% | responders at 65 mg/kg (rats; [6]): 86%

NC(=O)CC(c1ccc2c(c1)OCCO2)C1CC1 (stereo not drawn) [AP, 3-Cyclopropyl-3-(2,3dihydro-benzo[1,4]dioxin-6-yl)propionamide]
activity in the s.c. MET test (mice [2]): activity | activity in the MES test (mice [3]; at 300 mg/kg): activity | responders at 600 mg/kg (rats; [5]): 75% | responders at 450 mg/kg (rats; [6]): 75%

CC(C)C(CC(N)=O)c1ccc(Cl)cc1 (stereo not drawn) [AR, 3-(4-Chloro-phenyl)-4-methyl-pentanoic-acid-amide]
6 Hz (32 mA), fraction of animals (mice [1]; 100 mg/kg @ 0.25 hr): 3/4 | 6 Hz (32 mA), fraction of animals (mice [1]; 100 mg/kg @ 0.5 hr): 2/4 | activity in the s.c. MET test (mice [2]): activity | SMN2 promoter assay, evidence of activity (may warrant further study) (SMN2 promoter; NSC34 BLA reporter cells): show evidence of activity | activity in the MES test (mice [3]; at 300 mg/kg): activity

CNC(=O)CC(C)c1ccc(OC(F)(F)F)cc1 (stereo not drawn) [BC, N-Methyl-3-(4-trifluoromethoxyphenyl)-butyramide]
activity in the s.c. MET test (mice [2]): activity

CCNC(=O)CC(C)c1ccc(OC(F)(F)F)cc1 (stereo not drawn) [BF, N-Ethyl-3-(4-trifluoromethoxy-phenyl)-butyramide]
6 Hz (32 mA), fraction of animals (mice [1]; 100 mg/kg @ 0.25 hr): 3/4 | 6 Hz (32 mA), fraction of animals (mice [1]; 100 mg/kg @ 0.5 hr): 4/4 | 6 Hz (32 mA), fraction of animals (mice [1]; 100 mg/kg @ 1.0 hr): 2/4 | 6 Hz (32 mA), fraction of animals (mice [1]; 100 mg/kg @ 2.0 hr): 3/4 | activity in the s.c. MET test (mice [2]): activity | activity in the MES test (mice [3]; at 300 mg/kg): activity | responders at 200 mg/kg (rats; [6]): 88%

CC(CC(=O)N1CCOCC1)c1ccc(OC(F)(F)F)cc1 (stereo not drawn) [BI, 1-Morpholin-4-yl-3-(4-trifluoromethoxy-phenyl)-butan-1-one]
6 Hz (32 mA), fraction of animals (mice [1]; 50 mg/kg @ 0.25 hr): 2/4 | 6 Hz (32 mA), fraction of animals (mice [1]; 50 mg/kg @ 0.5 hr): 1/4 | activity in the s.c. MET test (mice [2]): activity

CC1CCN(C(=O)CC(C)c2ccc(OC(F)(F)F)cc2)CC1 (stereo not drawn) [BK, 1-(4-Methyl-piperidin-1-yl)-3-(4-trifluoromethoxy-phenyl)-butan-1-one]
activity in the 6 Hz (minimal clonic seizure) model (mice [1]; at 100 mg/kg): activity | neuroprotective effect against H2O2 and MPP+ oxidative stresses (MTT and LDH assays) [4]: statistically significant, dose-dependent neuroprotection | Promoter (SMN2 promoter test, summary YES/NO) (SMN2 promoter): YES | SMN2 promoter activity (SMN2 promoter): increased SMN2 promoter activity | MES, fraction of animals (mice [3]; 100 mg/kg @ 0.5 hr): 1/3 | MES, fraction of animals (mice [3]; 100 mg/kg @ 2.0 hr): 2/3

COCCNC(=O)CC(C)c1ccc(OC(F)(F)F)cc1 (stereo not drawn) [BL, N-(2-Methoxy-ethyl)-3-(4-trifluoromethoxy-phenyl)-butyramide]
activity in the 6 Hz (minimal clonic seizure) model (mice [1]; at 100 mg/kg): activity | neuroprotective effect against H2O2 and MPP+ oxidative stresses (MTT and LDH assays) [4]: statistically significant, dose-dependent neuroprotection | MES, fraction of animals (mice [3]; 100 mg/kg @ 0.25 hr): 2/3 @ | activity in the MES test (mice [3]; at 100 mg/kg): activity

COCCCNC(=O)CC(C)c1ccc(OC(F)(F)F)cc1 (stereo not drawn) [BM, N-(3-Methoxy-propyl)-3-(4-trifluoromethoxy-phenyl)-butyramide]
6 Hz (32 mA), fraction of animals (mice [1]; 100 mg/kg @ 0.5 hr): 1/4 @ 0.5 hr | neuroprotective effect against H2O2 and MPP+ oxidative stresses (MTT and LDH assays) [4]: statistically significant, dose-dependent neuroprotection | activity in the s.c. MET test (mice [2]): activity | SMN2 promoter activity (SMN2 promoter): increased SMN2 promoter activity | activity in the MES test (mice [3]; at 300 mg/kg): activity

CC(CC(N)=O)c1ccc(Cl)c(Cl)c1 (stereo not drawn) [BW, 3-[3,4-dichloro-phenyl]butyramide]
s.c. MET, fraction of animals (mice [2]; 30 mg/kg @ 4.0 hr): 1/1 @ 4.0 | s.c. MET, fraction of animals (mice [2]; 100 mg/kg @ 4.0 hr): 1/1 @ 4.0 | MES, fraction of animals (mice [3]; 100 mg/kg @ 0.5 hr): 1/3 @

COc1ccc2cc(C(C)CC(N)=O)ccc2c1 (stereo not drawn) [Compound AE, 3-(6-Methoxynaphthalen-2-yl)-butyramide]
6 Hz (32 mA), fraction of animals (mice [1]; 200 mg/kg @ 0.25 hr): 2/4 @ 0.25 hrs | activity in the 6 Hz (minimal clonic seizure) model (mice [1]; at 200 mg/kg): activity | neuroprotective effect against H2O2 and MPP+ oxidative stresses (MTT and LDH assays) [4]: statistically significant, dose-dependent neuroprotection | activity in the MES test (mice [3]; at 100 mg/kg): activity

CC(C)c1ccc(C(C)CC(N)=O)cc1 (stereo not drawn) [Compound AW, 3-(4-Isopropylphenyl)butyramide]
6 Hz (32 mA), fraction of animals (mice [1]; 200 mg/kg @ 0.25 hr): 4/4, 4/4 @ | 6 Hz (32 mA), fraction of animals (mice [1]; 200 mg/kg @ 0.5 hr): 4/4, 4/4 @ | activity in the 6 Hz (minimal clonic seizure) model (mice [1]; at 200 mg/kg): activity | SMN2 promoter activity (SMN2 promoter): increased SMN2 promoter activity | activity in the MES test (mice [3]; at 300 mg/kg): activity | responders at 200 mg/kg (rats; [5]): 25% | responders at 450 mg/kg (rats; [6]): 75%

CC(CC(N)=O)c1cccc(F)c1 (stereo not drawn) [Compound D, 3-(3-Fluorophenyl)butyramide]
activity in the s.c. MET test (mice [2]): activity | activity in the MES test (mice [3]; at 300 mg/kg): activity | responders at 400 mg/kg (rats; [5]): 75% | responders at 200 mg/kg (rats; [6]): 100%

CNC(=O)CC(C)c1ccc2c(c1)OCO2 (stereo not drawn) [Compound M, N-methyl-3-(3,4-methylenedioxy-phenyl)butyramide]
neuroprotective effect against H2O2 and MPP+ oxidative stresses (MTT and LDH assays) [4]: potent dose-dependent neuroprotective effects | Promoter (SMN2 promoter test, summary YES/NO) (SMN2 promoter): YES | SMN2 promoter activity (SMN2 promoter): increased SMN2 promoter activity | responders at 600 mg/kg (rats; [6]): 100%

CC(CC(=O)N(C)C)c1ccc2c(c1)OCO2 (stereo not drawn) [Compound N, N,N-dimethyl-3-(3,4-methylenedioxy-phenyl)butyramide]
neuroprotective effect against H2O2 and MPP+ oxidative stresses (MTT and LDH assays) [4]: potent dose-dependent neuroprotective effects | MES, fraction of animals (mice [3]; 100 mg/kg @ 0.5 hr): 1/3 @0.5 hr, | activity in the MES test (mice [3]; at 300 mg/kg): activity

COc1ccc(C(C)CC(N)=O)cc1Cl (stereo not drawn) [J, 3-(3-chloro-4-methoxy-phenyl)butyramide]
activity in the s.c. MET test (mice [2]): activity | responders at 600 mg/kg (rats; [5]): 38% | responders at 600 mg/kg (rats; [6]): 75%

CC(CC(N)=O)c1ccc2c(c1)OCCO2 (stereo not drawn) [K, 3-(3,4-ethylenedioxy-phenyl)butyramide]
SMN2 promoter assay, particularly strong hits (SMN2 promoter; NSC34 BLA reporter cells): particularly strong hits | Promoter (SMN2 promoter test, summary YES/NO) (SMN2 promoter): YES | SMN2 promoter activity (SMN2 promoter): increased SMN2 promoter activity | responders at 600 mg/kg (rats; [5]): 38% | responders at 300 mg/kg (rats; [6]): 50%

Reference: patent US12486218B2, “Compounds advantageous in the treatment of central nervous system diseases and disorders” (AurimMed Pharma, Inc., priority 2008, dated 2025)
